Consider seven compounds from patent US9556169B2, “Compounds and compositions for the treatment of parasitic diseases” (NOVARTIS AG, priority 2012, dated 2017).

For assay [1], the system named is Plasmodium yoelii (17XNL) sporozoites. The assay can be described thus: Liver stage P. yoelii sporozoite invasion assay in HepG2-A16-CD81EGFP cells. It is filed as cell-based. The following applies: values without * in Table 2, HepG2-A16-CD81EGFP liver cells, 48 hours, immunofluorescence, read-out: EC50 (nM), P. yoelii Sporozoite Invasion Assay. The source says: Assay for Proliferation of Parasite in Infected Liver Cells
Compounds of the invention can be assayed to measure their capacity to inhibit proliferation of parasites in liver cells. The proliferation is quantified by determine the number of infected cells by immunofluorescence.
Due to the difficulty of successfully infecting immortalized human liver cell lines with the human malaria sporozoites (liver-stage parasite), rodent malaria sporozoites from Plasmodium yoelii (17XNL) and P. berghei (ANKA) are the preferred surrogate. Sporozoites are obtained from Anopheles stephensi mosquitoes supplied by the New York University Insectary, which ships the malaria-infected mosquitoes 10-13 days following the ingestion of an infective blood meal.
A transgenic HepG2 cell line expressing the tetraspanin CD81 receptor (HepG2-A16-CD81^EGFP) is used to increase the infectivity rate of rodent-malaria sporozoites into human cells. HepG2-A16-CD81^EGFP cells are stably transformed to express a GFP-CD81 fusion protein. A continuous in vitro culture of this line was maintained at 37° C. in 4% CO2 in complete media (CM) which contains: DMEM (Invitrogen, Carlsbad, USA) supplemented with 10% FCS, 0.29 mg/ml glutamine, 100 units penicillin and 100 μg/ml streptomycin (SigmaAldrich, USA).
Liver Stage P. yoelii Sporozoite Invasion Assay
Twenty to twenty-six hours prior to sporozoite infection, 7.5×10^3 HepG2-A16-CD81^EGFP cells are seeded into 384-well plates (Aurora 384 IQ-EB black plates with clear bottoms; 50 μl of 1.5×10^5 cells/ml in CM). These plates are incubated at 37° C. with 4% CO2 overnight. Two hours prior to infection, 50 nl of compound dissolved in DMSO (0.1% final DMSO concentration per well) were transferred with a PinTool (GNF Systems) into the assay plates (10 μM final concentration). A 1:3 serial dilution of atovaquone (10 μM at the highest final concentration) and wells treated only with DMSO were used as positive and negative controls, respectively.
Freshly dissected salivary glands from infected mosquitoes were homogenized in a glass tissue grinder, filtered twice through Nylon cell strainers (40 μm pore size, BD Falcon) and counted using a hemocytometer. The assay plate with HepG2-A16-CD81^EGFP cells and compound were then infected with 8×10^3 sporozoitesper well and the plates are subjected to a centrifugal force of 650×g to pellet the sporozoites onto the liver cell monolayer. The assay plate is incubated at 37° C. for 2 hours to permit sporozoite invasion, then the media is aspirated from the media plate, and replaced with 50 μl CM (containing a 5× concentration of penicillin/streptomycin; 500 units penicillin and 0.5 mg streptomycin per ml) per well. 50 nl of compound is re-introduced by PinTool and the assay plate incubated for 48 hours at 37° C. before quantification of infected cells by immunofluorescence.
Atovaquone and uninfected wells were used as controls on each plate. Two replicate plates are tested for each assay.
After fixing the cells by addition of 12.5 μl of 20% solution of paraformaldehyde (EMS, Hatfield, USA) to each assay well (4% final formaldehyde concentration), membranes were permeabilized with 0.5% Triton-X-100 (Thermo Fisher Scientific) and EEFs were stained using a mouse polyclonal serum raised against the Plasmodium yoelii heat shock protein 70 (PyHSP70), a DyLight 649 goat anti-mouse IgG, Fc(gamma) fragment specific secondary antibody (Jackson Immuno Research, Cat#115-495-071) and the Hoechst 33342 nucleic acid dye (Invitrogen, Carlsbad, USA). Stained EEFs were then quantified using the Opera Confocal High Content Screening System (Perkin Elmer, Waltham, USA). Images were collected using a 20× objective lens (20×/0.45 NA, LWD Plan Fluor, Olympus) at a binning of 2, using a 365 nm Xeon arc lamp illumination to detect the Hoechst-labeled nuclei and 635 nm laser line to excite DyLight649-labeled parasites. The image resolution yielded was approximately 0.66 μm/pixel (˜0.43 μm 2/pixel). […]

In assay [2] the test system is P. falciparum (NF54 or 3D7 strain). As to the kind of experiment: P. falciparum proliferation assay in infected human blood cells (SYBR Green). The assay is classed as cell-based. The settings on record: Plasmodium falciparum, Erythrocyte; infected human erythrocytes, 72 hours, SYBR Green fluorescence; read-out: EC50 (nM), inhibitory efficacy in delaying P. falciparum proliferation in infected human blood cells. The essentials:
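Asexual NF54 or 3D7 parasites in O+ human erythrocytes (final 2.5% hematocrit, 0.3% parasitemia) exposed to compound for 72 h at 37 °C under 93% N2/4% CO2/3% O2. Lysis with SYBR Green I overnight at rt; fluorescence (ex 425/em 530 nm) tracks parasite DNA, giving EC50.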

Consider `CNCCNC(=O)c1ccc(-c2cnn3ccc(C(=O)N(C)c4ccc(C#N)cn4)cc23)cc1` [Example 114, N-(5-Cyanopyridin-2-yl)-N-methyl-3-(4-((2-(methylamino)ethyl)carbamoyl)phenyl)pyrazolo[1,5-a]pyridine-5-carboxamide], for which the results for the EC50 in assay [1] and in assay [2] were 950 nM and 52 nM, respectively.
For `CN(C)CCNC(=O)c1ccc(-c2cnn3ccc(C(=O)N(C)c4ccc(C#N)cn4)cc23)cc1` [Example 115, N-(5-cyanopyridin-2-yl)-3-(4-((2-(dimethylamino)ethyl)carbamoyl)phenyl)-N-methylpyrazolo[1,5-a]pyridine-5-carboxamide], in that order: 79 nM and 155 nM.
The matching figures for `CNC(=O)c1ccc(-c2cnn3ccc(C(=O)N(c4ccc(Cl)cc4)C4CC4)cc23)cc1` [Example 116, N-(4-Chlorophenyl)-N-cyclopropyl-3-(4-(methylcarbamoyl)phenyl)pyrazolo[1,5-a]pyridine-5-carboxamide]: 3 nM and 1 nM.
Turning to `CNC(=O)c1ccc(-c2cnn3ccc(C(=O)N(CC4CC4)c4ccc(C#N)cn4)cc23)cc1` [Example 117, N-(5-Cyanopyridin-2-yl)-N-(cyclopropylmethyl)-3-(4-(methylcarbamoyl)phenyl)pyrazolo[1,5-a]pyridine-5-carboxamide], the EC50 was found to be 7 nM in assay [1] and 4 nM in assay [2].
For `CNC(=O)c1ccc(-c2cnn3ccc(C(=O)N(c4ccc(C#N)cc4)C4CC4)cc23)cc1` [Example 118, N-(4-Cyanophenyl)-N-cyclopropyl-3-(4-(methylcarbamoyl)phenyl)pyrazolo[1,5-a]pyridine-5-carboxamide], in that order: 1 nM and 3 nM.
The matching figures for `CNC(=O)c1ccc(-c2cnn3ccc(C(=O)N(c4ccc(C#N)cn4)C(C)(C)C)cc23)cc1` [Example 119, N-(tert-Butyl)-N-(5-cyanopyridin-2-yl)-3-(4-(methylcarbamoyl)phenyl)pyrazolo[1,5-a]pyridine-5-carboxamide]: 56 nM and 95 nM.
Regarding `CCN(C(=O)c1ccn2ncc(-c3ccc(S(=O)(=O)NC)cc3)c2c1)c1ccc(C#N)cn1` [Example 140, N-(5-cyanopyridin-2-yl)-N-ethyl-3-(4-[N-methylsulfamoyl]phenyl)pyrazolo[1,5-a]pyridine-5-carboxamide], the EC50 in assay [1] is 84 nM; in assay [2], 199 nM.
